How the values were obtained:
Assay type in all cases: in vivo
[1] = test system: morning glory (Ipomoea hederacea); assay: Test B preemergence
How it was run: (§1)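 Post-treatment, species sat 13–15 days under greenhouse conditions before visual scoring against controls, 0 (no effect) through 100 (complete control). Application preemergence to sown seeds or postemergence at 1- to 4-leaf stage, using a non-phytotoxic solvent/surfactant formulation.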

[2] = test system: lambsquarters (Chenopodium album); assay: Test B preemergence
How it was run: as §1

[3] = test system: corn (Zea mays); assay: Test B preemergence
How it was run: as §1

[4] = test system: pigweed (Amaranthus retroflexus); assay: Test B preemergence
How it was run: as §1

[5] = test system: Surinam grass (Brachiaria decumbens); assay: Test B preemergence
How it was run: as §1

[6] = test system: velvetleaf (Abutilon theophrasti); assay: Test B preemergence
How it was run: as §1

[7] = test system: crabgrass (Digitaria sanguinalis); assay: Test B preemergence
How it was run: as §1

[8] = test system: barnyardgrass (Echinochloa crus-galli); assay: Test B preemergence
How it was run: as §1

[9] = test system: cocklebur (Xanthium strumarium); assay: Test B preemergence
How it was run: as §1

[10] = test system: rice (Oryza saliva); assay: Test B preemergence
How it was run: as §1

[11] = test system: giant foxtail (Setaria faberii); assay: Test B preemergence
How it was run: as §1

[12] = test system: Surinam grass (Brachiaria decumbens); assay: Test C preemergence
Source text: (§2) Seeds of plant species selected from bermudagrass (Cynodon dactylon), Surinam grass (Brachiaria decumbens), cocklebur (Xanthium strumarium), corn (Zea mays), crabgrass (Digitaria sanguinalis), woolly cupgrass (Eriochloa villosa), giant foxtail (Setaria faberii), goosegrass (Eleusine indica), johnsongrass (Sorghum halepense), kochia (Kochia scoparia), lambsquarters (Chenopodium album), morningglory (Ipomoea hederacea), yellow nutsedge (Cyperus esculentus), pigweed (Amaranthus retroflexus), common ragweed (Ambrosia elatior), soybean (Glycine max) and velvetleaf (Abutilon theophrasti) were planted and treated preemergence with test chemicals formulated in a non-phytotoxic solvent mixture which included a surfactant.
(§3) At the same time, plants selected from these crop and weed species and also winter barley (Hordeum vulgare), blackgrass (Alopecurus myosuroides), canary grass (Phalaris minor), chickweed (Stellaria media), downy brome (Bromus tectorum), green foxtail (Setaria viridis), Italian ryegrass (Lolium multiflorum), wheat (Triticum aestivum), wild oat (Avena fatua) and windgrass (Apera spica-venti) were treated with postemergence applications of some of the test chemicals formulated in the same manner. Plants ranged in height from 2 to 18 cm (1- to 4-leaf stage) for postemergence treatments. Plant species in the flooded paddy test consisted of rice (Oryza saliva), smallflower flatsedge (Cyperus difformis), duck salad (Heteranthera limosa) and barnyardgrass (Echinochloa crus-galli) grown to the 2-leaf stage for testing. Treated plants and controls were maintained in a greenhouse for 12 to 14 days, after which time all species were compared to controls and visually evaluated. Plant response ratings, summarized in Table C, are based on a scale of 0 to 100 where 0 is no effect and 100 is complete control. A dash (-) response means no test result.

[13] = test system: velvetleaf (Abutilon theophrasti); assay: Test C preemergence
Source text: as §2, §3

[14] = test system: goosegrass (Eleusine indica); assay: Test C preemergence
Source text: as §2, §3

[15] = test system: bermudagrass (Cynodon dactylon); assay: Test C preemergence
Source text: as §2, §3

[16] = test system: morningglory (Ipomoea hederacea); assay: Test C preemergence
Source text: as §2, §3

[17] = test system: common ragweed (Ambrosia elatior); assay: Test C preemergence
Source text: as §2, §3

[18] = test system: crabgrass (Digitaria sanguinalis); assay: Test C preemergence
Source text: as §2, §3

[19] = test system: cocklebur (Xanthium strumarium); assay: Test C preemergence
Source text: as §2, §3

[20] = test system: giant foxtail (Setaria faberii); assay: Test C preemergence
Source text: as §2, §3

[21] = test system: Sunflower; assay: Test C preemergence; conditions: Rate 125 g/ha; scale 0 to 100, 0 no effect, 100 complete control
Source text: as §2, §3

[22] = Preemergence, Rate 500 g/ha, scale 0 to 100, 0 no effect, 100 complete control
[23] = preemergence, Rate 125 g/ha, scale of 0 to 100 where 0 is no effect and 100 is complete control, 13 to 15 days
[24] = Rate 125 g/ha, scale 0 to 100, 0 no effect, 100 complete control
[25] = preemergence, Rate 31 g/ha, scale 0 to 100
[26] = preemergence, Rate 62 g/ha, scale 0 to 100
[27] = preemergence, Rate 250 g/ha, scale 0 to 100, 0 no effect, 100 complete control

CC(C)OC(=O)c1cccc(N2CCC(n3ccc(C(C)(C)C)n3)C2=O)c1 (centres unmarked) [Compound 124]
80: Plant response rating, Pigweed [4, 23] | Plant response rating, Bermudagrass [15, 24] | Plant response rating, Crabgrass [18, 25]
30: Plant response rating, Crabgrass [7, 23]
50: Plant response rating, Foxtail, Giant [11, 23]
60: Plant response rating, Morningglory [1, 22] | Plant response rating, Goosegrass [14, 27] | Plant response rating, Bermudagrass [15, 26]
90: Plant response rating, Crabgrass [18, 26]
100: Plant response rating, Lambsquarters [2, 22] | Plant response rating, Lambsquarters [2, 23] | Plant response rating, Pigweed [4, 22] | Plant response rating, Crabgrass [7, 22] | Plant response rating, Barnyardgrass [8, 22] | Plant response rating, Foxtail, Giant [11, 22] | Plant response rating, Bermudagrass [15, 27] | Plant response rating, Crabgrass [18, 24] | Plant response rating, Crabgrass [18, 27]
40: Plant response rating, Surinam grass [5, 22] | Plant response rating, Goosegrass [14, 24]
0: Plant response rating, Morningglory [1, 23] | Plant response rating, Corn [3, 22] | Plant response rating, Corn [3, 23] | Plant response rating, Surinam grass [5, 23] | Plant response rating, Velvetleaf [6, 22] | Plant response rating, Velvetleaf [6, 23] | Plant response rating, Cocklebur [9, 22] | Plant response rating, Cocklebur [9, 23] | Plant response rating, Rice [10, 22] | Plant response rating, Rice [10, 23] | Plant response rating, Surinam grass [12, 24] | Plant response rating, Surinam grass [12, 25] | Plant response rating, Surinam grass [12, 26] | Plant response rating, Velvetleaf [13, 24] | Plant response rating, Velvetleaf [13, 25] | Plant response rating, Velvetleaf [13, 26] | Plant response rating, Velvetleaf [13, 27] | Plant response rating, Goosegrass [14, 25] | Plant response rating, Goosegrass [14, 26] | Plant response rating, Bermudagrass [15, 25] | Plant response rating, Morningglory [16, 24] | Plant response rating, Morningglory [16, 25] | Plant response rating, Morningglory [16, 26] | Plant response rating, Morningglory [16, 27] | Plant response rating, Ragweed, Common [17, 24] | Plant response rating, Ragweed, Common [17, 25] | Plant response rating, Ragweed, Common [17, 26] | Plant response rating, Ragweed, Common [17, 27] | Plant response rating, Cocklebur [19, 24] | Plant response rating, Cocklebur [19, 25] | Plant response rating, Cocklebur [19, 26] | Plant response rating, Cocklebur [19, 27] | Plant response rating, Foxtail, Giant [20, 25] | Plant response rating, Foxtail, Giant [20, 26] | Plant response rating, Sunflower [21]
20: Plant response rating, Foxtail, Giant [20, 24]
10: Plant response rating, Surinam grass [12, 27]
85: Plant response rating, Foxtail, Giant [20, 27]
70: Plant response rating, Barnyardgrass [8, 23]

Reference: US7138361B2, “Herbicidal heterocycles” (E. I. du Pont de Nemours and Company, priority 2000, dated 2006)
